# From US20170266151A1, “Novel salts of 3-[(DIMETHYLAMINO)METHYL]-N--1-BENZOFURAN-2-CARBOXAMIDE, related crystalline forms, method for preparing the same and pharmaceutical compositions containing the same” (Pharmacyclics LLC, priority 2014, published 2017)
# Columns and labels:
# [1] = Hygroscopicity by dynamic vapor sorption (DVS); type: physicochemical
# Method: The hygroscopicity of the crystalline forms of the salts of 3-[(dimethylamino)methyl]-N-{2-[4-(hydroxycarbamoyl)phenoxy]ethyl}-1-benzofuran-2-carboxamide according to the invention was evaluated by dynamic vapor sorption (DVS) using a DVS Intrinsic apparatus. A sample of 5 to 10 mg of the substance, weighed accurately, was disposed in a DVS sample pan operating at 25° C. under controlled humidity. The mass variation was recorded on the basis of a balancing bearing at 50% relative humidity, followed by three subsequent linear phases of increasing (from 50 to 90%), of decreasing (from 90 to 0%) and of increasing (from 0 to 50%) the relative humidity at a speed of 10% per hour. The relative humidity was maintained constant when it reached either 0, or 50, or 90% relative humidity, until the mass variation was less than 0.002% per minute, with a time limit of 15 hours.
# The hygroscopicity of the hemipentahydrate crystalline form of the hydrogen sulfate of 3-[(dimethylamino)methyl]-N-{2-[4-(hydroxycarbamoyl)phenoxy]ethyl}-1-benzofuran-2-carboxamide according to the invention was evaluated by dynamic vapor sorption (DVS) using a DVS Intrinsic apparatus. A sample of 5 to 10 mg of the substance, weighed accurately, was disposed in a DVS sample pan operating at 25° C. under controlled humidity. The mass variation was recorded on the basis of a balancing bearing at 50% relative humidity, followed by three subsequent linear phases of increasing (from 50 to 90%), of decreasing (from 90 to 0%) and of increasing (from 0 to 50%) the relative humidity at a speed of 10% per hour. The relative humidity was maintained constant when it reached either 0, or 50, or 90 % relative humidity, until the mass variation is less than 0.002% per minute, with a time limit of 15 hours.
# [2] = system: xenograft models; details: Buggy et al. 2006; cited from earlier work
# [3] = system: tumor cells; details: tumor cells cultured in vitro; Buggy et al. 2006; cited from earlier work
# [4] = salt of WO 2004/092115; use on industrial scale difficult; cited from earlier work
compound,measurement,setting,value
"CN(C)Cc1c(C(=O)NCCOc2ccc(C(=O)NO)cc2)oc2ccccc12.O=C(O)C(=O)O [Example 3, Oxalate of 3-[(dimethylamino)methyl]-N-{2-[4-(hydroxycarbamoyl)phenoxy]ethyl}-1-benzofuran-2-carboxamide]",mass variation detected by DVS analysis,[1]; exposure to between 0 and 90% relative humidity at 25° C.,less than 0.2%
"CN(C)Cc1c(C(=O)NCCOc2ccc(C(=O)NO)cc2)oc2ccccc12 [abexinostat, 3-[(Dimethylamino)methyl]-N-{2-[4-(hydroxycarbamoyl)phenoxy]ethyl}-1-benzofuran-2-carboxamide]",effect on tumor growth,[2],inhibit tumor growth
same,effect on apoptosis,[3],induce apoptosis
same,effect on cell growth,[3],inhibit cell growth
"CN(C)Cc1c(C(=O)NCCOc2ccc(C(=O)NO)cc2)oc2ccccc12.Cl [hydrochloride, hydrochloride of 3-[(dimethylamino)methyl]-N-{2-[4-(hydroxycarbamoyl)phenoxy]ethyl}-1-benzofuran-2-carboxamide]",hygroscopic properties,[4],hygroscopic
Hydrogen Sulfate of 3-[(dimethylamino)methyl]-N-{2-[4-(hydroxycarbamoyl)phenoxy]ethyl}-1-benzofuran-2-carboxamide [Example 5],relative humidity beyond which converted into hemiheptahydrate hydrogen sulfate,"[1]; DVS, 25° C., increasing humidity",> 70 % relative humidity
Hydrogen Sulfate of 3-[(dimethylamino)methyl]-N-{2-[4-(hydroxycarbamoyl)phenoxy]ethyl}-1-benzofuran-2-carboxamide [Example 6],relative humidity below which dehydrated completely,"[1]; DVS, 25° C., decreasing humidity to 0%",Below 20 % relative humidity
